Columns and labels:
[1] = molecular target: T1, BSA (bovine serum albumin) (Bos taurus, UniProt P02769); test: tryptophan fluorescence quenching (excitation […] nm), Scatchard plot; type: binding; settings: read-out: K(BSA) (converted)
T1 construct: gene ALB; commercial native serum albumin (Sigma-Aldrich), mature secreted protein, catalogue number not given

[2] = molecular target: T2, HSA (human serum albumin) (Homo sapiens, UniProt P02768); test: as above; type: binding; settings: read-out: K(HSA) (converted)
T2 construct: gene ALB; commercial serum albumin (Sigma-Aldrich), mature secreted protein, catalogue number not given
T2 sequence (P02768 25-609): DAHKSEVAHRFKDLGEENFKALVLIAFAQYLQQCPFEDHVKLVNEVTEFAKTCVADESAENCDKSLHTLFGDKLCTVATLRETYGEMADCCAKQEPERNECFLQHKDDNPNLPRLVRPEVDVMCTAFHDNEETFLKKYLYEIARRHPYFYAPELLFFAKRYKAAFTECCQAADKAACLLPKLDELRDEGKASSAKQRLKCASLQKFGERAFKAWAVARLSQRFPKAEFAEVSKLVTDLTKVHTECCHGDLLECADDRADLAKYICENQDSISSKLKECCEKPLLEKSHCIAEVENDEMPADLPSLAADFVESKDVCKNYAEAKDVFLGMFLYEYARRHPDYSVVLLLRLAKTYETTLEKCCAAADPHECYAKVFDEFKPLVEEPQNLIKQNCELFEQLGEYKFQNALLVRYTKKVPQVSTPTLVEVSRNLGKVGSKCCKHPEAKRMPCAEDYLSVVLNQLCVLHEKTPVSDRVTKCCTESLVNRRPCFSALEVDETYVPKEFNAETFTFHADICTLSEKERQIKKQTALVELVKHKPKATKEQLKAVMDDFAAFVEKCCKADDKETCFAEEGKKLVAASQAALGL

T1 sequence (P02769 25-607): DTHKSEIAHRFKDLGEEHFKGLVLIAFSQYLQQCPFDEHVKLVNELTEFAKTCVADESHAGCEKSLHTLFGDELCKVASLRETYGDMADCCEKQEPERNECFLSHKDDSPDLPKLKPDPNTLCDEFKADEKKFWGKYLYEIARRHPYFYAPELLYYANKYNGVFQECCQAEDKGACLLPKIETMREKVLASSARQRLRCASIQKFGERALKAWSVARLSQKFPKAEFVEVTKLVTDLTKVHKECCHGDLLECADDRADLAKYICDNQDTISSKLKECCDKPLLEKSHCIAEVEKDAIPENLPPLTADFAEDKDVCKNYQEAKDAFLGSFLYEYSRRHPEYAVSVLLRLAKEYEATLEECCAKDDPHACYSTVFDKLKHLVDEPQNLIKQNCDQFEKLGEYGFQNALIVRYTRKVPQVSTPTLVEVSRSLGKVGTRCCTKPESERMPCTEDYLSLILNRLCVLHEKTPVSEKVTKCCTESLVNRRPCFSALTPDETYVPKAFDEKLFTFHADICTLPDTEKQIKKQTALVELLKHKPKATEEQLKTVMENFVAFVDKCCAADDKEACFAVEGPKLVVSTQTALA

- Kd [1]: 3.68 µM
- Kd [2]: 3.7 µM
Compound: O=C(O)c1ccccc1Nc1ccc(Br)cc1 [4′-Br-fenH]

— paper PMC12524402, “Cobalt(II) Complexes of 4′-Bromo-Fenamic Acid: Antioxidant Properties, Antibacterial Activity, and Interaction with DNA and Albumins” (International Journal of Molecular Sciences, 2025)
